Assay results reported in patent publication US20020028849A1, “Use of retinol in assisted-reproduction protocols” (priority 2000, published 2002).

Legend:
[1] = system: superovulated ewes (embryos recovered at the morula stage); assay: Experiment 1: retinoid treatment of superovulated ewes, in vitro development of recovered morula-stage embryos; type: in vivo, sheep; details: for embryo quality score (grade 1=excellent to 4=degenerate) immediately after collection / in vitro blastocyst formation / embryonic hatching rate in vitro: ROH 500,000 IU, RA 15 mg; for embryo quality score (grade 1=excellent to 4=degenerate) immediately after collection / in vitro blastocyst formation: CIS 15 mg on first and last day of FSH; for embryo quality score (grade 1=excellent to 4=degenerate) immediately after collection: morula stage; for in vitro blastocyst formation: morulae cultured 72 h in TCM 199; for embryonic hatching rate in vitro: CIS 15 mg, morulae cultured 72 h
Method: (§1) Referring now to FIGS. 1 and 2, a series of experiments were carried out to examine the effect of retinoid administration on superovulated sheep. In these experiments, the estrous cycles of sexually mature crossbred ewes were synchronized using progestin implants (Synchromate B) combined with prostaglandin F2-alpha (Lutalyse) injections, and superovulation was induced by multiple FSH injections. Briefly, animals were administered one progestin implant and 6 days later received two Lutalyse injections (15 mg i.m.) 12 hours apart. Superovulation was induced using a total of 24 units of FSH administered twice daily in decreasing doses over 3 days (5.5, 4.4, 3.3 units per injection, respectively) beginning 9-11 days after implant administration. Retinoid treatments were administered on the first and last day of FSH injections. Implants were removed at the time of the fifth FSH injection, and animals were checked for estrus 24 hours later. […] All animals were maintained on high-quality hay and fed ad libitum, with free-choice access to a sheep and goat mineral premix that contained 1 million IU vitamin A per pound.
In the first experiment, performed under decreasing day length (fall), 25 ewes were randomly assigned to one of the following treatments: (1) all-trans retinol (ROH; 500,000 IU, n=6); (2) all-trans retinoic acid (RA; 15 mg, n=6); (3) 9-cis retinoic acid (CIS; 15 mg, n=7); or (4) vehicle (Control; n=6), which was corn oil. Animals were surgically ovohysterectomized at 144 hours post-implant removal, and uteri were gently flushed twice with culture medium (tissue culture medium 199 [TCM 199]) to collect morula stage embryos. Two ewes from the RA group wer dropped from the study: one because of a total lack of response to the FSH treatment, the other because of overstimulation resulting in more than 50 ovulations with none of the ova fertilizing. This left 4 animals in the RA group, 5 in each of the ROH and Control groups, and 7 in the CIS group.
Embryos (morulae) collected in experiments 1 and 2 were categorized according to morphology, developmental stage, and quality based on a procedure developed for bovine embryos. See, Lindner and Wright, Theriogenology 1983; 20:407-416. Quality grades ranged from 1 to 4, with 1=excellent, 2=good, 3=poor, and 4=degenerate. One individual, who was unaware of treatments at the time, performed all of the grading.
In the first two experiments, morula-stage embryos were cultured in TCM 199 with Earle's salt supplemented with 10% FBS and 1 mM glutamine. See, Bavister BD. Studies on the developmental blocks in cultured hamster embryos. In: Bavister BD (ed.), The Mammalian Preimplantation Embryo: Regulation of Growth and Differentiation in vitro. New York:Plenum Press; 1987:219-249. The FBS had been twice stripped of low molecular weight molecules with charcoal, and retinol concentrations were below detection levels as determined by fluorescent analysis. See, Selvaraj and Susheela, Clin Chim Acta 1970; 27:165-170. In the third experiment, 1- to 4-cell embryos were cultured in SOF supplemented with 3 mg/ml BSA and essential and nonessential amino acids. See, Carolan et al., Theriogenology 1995; 43:1115-1128. Both media were prepared weekly, filtered through a 0.2 um filter, and allowed to equilibrate for 2 hours in a humidified atmosphere at 38.5° C. containing 5% CO2 in air.
Morula-stage embryos (experiments 1 and 2) were washed a minimum of three times in the outer well of organ culture dishes and then transferred with a minimum amount of medium into the inner well, which contained 3 ml of TCM 199. Embryos from each ewe were cultured in one dish, and there were no significant differences in the average number of embryos per dish between treatments. Embryos were cultured for 96 hours and observed daily for blastocyst formation and complete hatching from the zona pellucida. No further development was observed after 72 hours in culture, and all data presented reflect that time period. […]

[2] = system: superovulated ewes (embryos recovered at the morula stage); assay: Experiment 2: ROH treatment of superovulated ewes (winter), in vitro development of morula-stage embryos; type: in vivo, sheep
Method: as §1
The second experiment was a repetition of the first, with the exceptions that it was performed under increasing day length (winter) and only the ROH and Control treatments were administered (in combination with FSH) to 24 ewes (12 per treatment) not used in the previous experiment. One ewe from the Control group was dropped from the study for failure to respond to FSH treatment. […]
(§2) In the first two experiments, morula-stage embryos were cultured in TCM 199 with Earle's salt supplemented with 10% FBS and 1 mM glutamine. […] The FBS had been twice stripped of low molecular weight molecules with charcoal, and retinol concentrations were below detection levels as determined by fluorescent analysis. […]
(§3) Data were checked for normality and analyzed using the Statistical Analysis System (SAS Institute Inc., Cary, N.C.). […]

[3] = system: superovulated ewes (1- to 4-cell embryos); assay: Experiment 3: ROH treatment of superovulated ewes, in vitro development of 1- to 4-cell embryos; type: in vivo, sheep; details: 1- to 4-cell embryos cultured in SOF
Method: as §1
The third study involved two identical experiments performed sequentially in the fall and winter. Results were not different between seasons, and the data were combined. A total of 24 ewes, not used in the previous experiments, received either ROH (n=12) or Control (n=12) treatment in combination with FSH, followed by natural mating at estrus, as in experiment 2. At 84 hours post-implant removal, ewes were salphincectomized and oviducts gently flushed with culture medium in order to recover 1- to 4-cell embryos.
as §2, with “glutamine. See, Bavister BD.” for “glutamine.”
as §3

[4] = system: in vitro produced bovine embryos (presumptive zygotes); assay: In vitro retinol treatment of presumptive zygotes, blastocyst formation; type: cell-based; details: 7-8 days culture
Method: The effects of retinol and retinoic acid on early embryonic development of in vitro produced bovine embryos were investigated. Oocytes and their surrounding cumulus cells were collected from bovine ovaries, matured in vitro for 24 h and fertilized by standard procedures for 8-10 h. Presumptive zygotes were denuded of cumulus cells, washed and cultured in modified synthetic oviduct fluid (a standard culture medium) in the presence or absence of retinol ([…]) at 38.5° C. in a humidified atmosphere of 5% CO2 in air. Embryos were cultured for 7-8 days.
Blastocyst (a fluid filled ball of approximately 100 cells, containing a inner cell mass which gives rise to the fetus and a trophoblast which gives rise to the placenta) formation was used as an end point for in vitro development. The above experiment was performed three times using 210 embryos in each treatment group with 70 embryos/group (630 total, 210/treatment). Embryonic development to the blastocyst stage, expressed as % blastocyst/cleaved embryos, was control (no retinol)=28.33%, 1 uM Retinol=48.66%, 10 uM Retinol=57.33%.

[5] = system: recipient ewes receiving embryos from treated donor ewes; assay: Pregnancy rates after transfer of frozen embryos from retinol-treated superovulated ewes; type: in vivo, sheep
Text: Twenty-four ewes were synchronized, superovulated and administered treatments, as described previously (Eberhardt, Will and Godkin. Biol Reprod 60, 1483-1487, 1999). Briefly, animals received a progestagen implant and six days later received two injections of prostaglandin F2-alpha (Lutalyse, Upjohn Co. Kalamazoo, Mich.) twelve hours apart. Superovulation was induced with 24 units of porcine follicle stimulating hormone (FSH, Sioux Biochemical, Sioux City, Iowa) in decreasing doses over 3 days beginning 9-11 days after implant administration. All-trans retinol was administered to twelve ewes in corn oil at 500,000 IU per injection on the first and last day of FSH injections. Control ewes (12) received corn oil without retinol.
Embryos at the morula stage of development (168 h post implant removal) were collected by gently flushing the uterus with phosphaste-buffered saline+2% bovine serum albumin (BSA) following surgical hysterectomy. Embryos were frozen by conventional methods (Leibo. Theriogenology 21: 767. 1984) using ethylene glycol as the cryoprotectant in a programmable freezer and stored in liquid N2. After three months, embryos were thawed briefly (30 seconds) at 37° C. and two embryos were transferred directly into the uterine horn of synchronized recipient ewes. Seven recipient ewes received embryos from retinol-treated ewes and 11 recipient ewes received embryos from control ewes. Pregnancy rates were determined by ultrasonography 30-40 days after transfer.

[6] = cited from earlier work

SMILES | embryo quality score (grade 1=excellent to 4=degenerate) immediately after collection [1] | in vitro blastocyst formation [1] [%] | embryonic hatching rate in vitro [1] [%] | fold increase in in vitro blastocyst formation compared to RA, CIS or Control animals ([1]; p<0.05) | fold increase in hatching rate in comparison with vehicle treatment [2] [fold] | hatching rate ([2]; ROH treatment of donor ewes, p<0.05) [%] | percentage of embryos that formed blastocysts ([2]; ROH treatment of donor ewes, winter, n=243 embryos) [%] | blastocyst hatching [3] [%] | blastocyst formation ([3]; n=230 embryos, p<0.05) [%] | embryos that progressed through the 8-cell in vitro block ([3]; p<0.05) [%] | embryonic development to the blastocyst stage, % blastocyst/cleaved embryos ([4]; 1 uM Retinol in modified synthetic oviduct fluid) [%] | embryonic development to the blastocyst stage, % blastocyst/cleaved embryos ([4]; 10 uM Retinol in modified synthetic oviduct fluid) [%] | pregnancy rate of recipient ewes ([5]; donors given 500,000 IU per injection on first and last day of FSH, two frozen-thawed embryos transferred, ultrasonography 30-40 days after transfer) [%] | number of the six pregnant recipient ewes carrying twins ([5]; embryos from retinol-treated donor ewes) | survival of all transferred embryos ([5]; embryos from retinol-treated donor ewes, 30-40 days after transfer) [%] | solubility in ethanol, methanol, ether, fats, and oil ([6]; ethanol, methanol, ether, fats, oil) | solubility in water or aqueous salt solutions ([6]; water or aqueous salt solutions)
CC1=C(/C=C/C(C)=C\C=C\C(C)=C\C(=O)O)C(C)(C)CCC1 [CIS, 9-cis retinoic acid] | 2.4±0.2 | 33 | 38 |  |  |  |  |  |  |  |  |  |  |  |  |  | 
CC1=C(/C=C/C(C)=C/C=C/C(C)=C/C(=O)O)C(C)(C)CCC1 [RA, all-trans retinoic acid] |  | 27 | 55 |  |  |  |  |  |  |  |  |  |  |  |  |  | 
CC1=C(/C=C/C(C)=C/C=C/C(C)=C/CO)C(C)(C)CCC1 [ROH, all-trans retinol] | 1.9±0.1 | 72 | 73 | greater than 2 fold | ~3 | 70 | 70 | 71 | 79 | 94 | 48.66 | 57.33 | 86 | five | 78.6 | soluble | practically insoluble
